From patent US20250025500A1, “PHOSPHATASE INHIBITORS AS NK CELLS MODULATORS FOR THE TREATMENT OF CANCER” (Kanyr Pharma Inc., priority 2021, published 2025)

What was measured:
Assay type in all cases: cell-based, Human
[1] = test system: NK-92 cells against Reh cells; test: NK-92 cytolytic assay against NK resistant Reh target cells; settings: 30 μM three days, IL-2 100 IU/mL, 3 h assay
Description: Human NK cell line NK-92 was purchased from American Type Culture Collection (ATCC) and cultured in α-MEM Essential Medium (no ribonucleoside and deoxyribonucleoside) supplemented with 0.2 mM Myo-inositol, 0.02 mM Folic Acid, 0.1 mM β-mercaptoethanol, 1% of Non-essential Amino Acids, 1×L-Glutamax, 1% of Penicillin/Streptomycin, 12.5% of heat-inactivated Horse, and 12.5% of heat-inactivated Characterized Fetal Bovine Serum or FBS. The media was supplemented freshly with 200 IU/mL of IL-2 upon cell thawing for one passage and 100 IU/mL of IL-2 for cell expansion. Human tumor cell lines K-562 and Reh were purchased from ATCC and were cultured in RPM11640 Medium supplemented with 1% of Penicillin/Streptomycin and 10% of heat inactivated FBS. HEK293T/17 cells and HCT116 cells were cultured in Dulbecco's Modified Eagle's Medium (DMEM) High Glucose Medium supplemented with 1% of Penicillin/Streptomycin and 10% of FBS. All cell lines were maintained in 5% CO2, 37° C. incubator, except that NK-92 were maintained in 6.5% CO2 incubator at 37° C. […]
NK-92 anti-tumor cytolysis function was assessed by flow cytometry-based analysis. […] Flow cytometry sample acquisition was performed with BDO LSRFortessa™ with a UV laser at Flow Cytometry Core Facility, McGill University, and data was analyzed with FlowJo™ 10.7.1 and summarized with Prism™ 9 (GraphPad™). […]

[2] = test system: NK-92 cells against K-562 cells; test: NK-92 cytolytic assay against K-562 tumor target cells (flow cytometry); settings: three days
Description: Human NK cell line NK-92 was purchased from American Type Culture Collection (ATCC) and cultured in α-MEM Essential Medium (no ribonucleoside and deoxyribonucleoside) supplemented with 0.2 mM Myo-inositol, 0.02 mM Folic Acid, 0.1 mM β-mercaptoethanol, 1% of Non-essential Amino Acids, 1×L-Glutamax, 1% of Penicillin/Streptomycin, 12.5% of heat-inactivated Horse, and 12.5% of heat-inactivated Characterized Fetal Bovine Serum or FBS. The media was supplemented freshly with 200 IU/mL of IL-2 upon cell thawing for one passage and 100 IU/mL of IL-2 for cell expansion. Human tumor cell lines K-562 and Reh were purchased from ATCC and were cultured in RPM11640 Medium supplemented with 1% of Penicillin/Streptomycin and 10% of heat inactivated FBS. HEK293T/17 cells and HCT116 cells were cultured in Dulbecco's Modified Eagle's Medium (DMEM) High Glucose Medium supplemented with 1% of Penicillin/Streptomycin and 10% of FBS. All cell lines were maintained in 5% CO2, 37° C. incubator, except that NK-92 were maintained in 6.5% CO2 incubator at 37° C. All cell lines were maintained below 30 passages and tested regularly for mycoplasma infection using PCR.
NK-92 anti-tumor cytolysis function was assessed by flow cytometry-based analysis. Tumor target cells K-562 and Reh were labelled with cell tracker CFSE ([…]) or CMRA (5 μM) according to manufacturer's protocol at a maximum of one day before cytolysis experiment. On the experiment day, labelled tumor target cells were washed once with PBS and resuspend to desired cell concentration in complete cell media. NK-92 cells were washed and resuspended in complete media without cytokines to desired cell concentration. NK-92 cells and tumor target cells were plated at various effector: target (E:T) ratios with basal cell numbers at 50,000 cells per well in round-bottom 96-well plate and were co-cultured for 3 hours in 5% CO2, 37° C. incubator. After co-culture, cells were washed once with ice-cold PBS and stained with fixable viability dyes: Aqua (Invitrogen™) or UV Blue (Invitrogen™) or eFluor 780 (eBioscience Invitrogen™) at 1:2000 in dark for 20 mins at 4° C. Stained cells were washed twice with ice cold PBS and were fixed with 1% Paraformaldehyde (PFA) for 1 hour or 2% PFA for 30 mins in dark at 4° C. Flow cytometry sample acquisition was performed with BDO LSRFortessa™ with a UV laser at Flow Cytometry Core Facility, McGill University, and data was analyzed with FlowJo™ 10.7.1 and summarized with Prism™ 9 (GraphPad™). Calculation for % of specific cytolysis was followed by the equation: […]

[3] = test system: JAK/STAT signaling in NK-92 cells; test: JAK/STAT signaling Western blot and IL-2 stimulation assay in NK-92; settings: regular cell culture, inhibitor titration, three days
Description: (§1) Total cell lysate was prepared with modified RIPA buffer (1M Tris-HCl (pH 7.5), 5M NaCl, 0.25% sodium deoxycholate, 10% NP-40 and 10 mM sodium fluoride) supplemented with ethylenediaminetetraacetic acid (EDTA)-free protease inhibitor (Roche™) and 2 mM sodium orthovanadate (Sigma-Aldrich™). Protein levels were quantified by bicinchoninic acid (BCA) assay. Protein lysate was separated by 10% SDS-PAGE and Western analysis was performed using primary antibodies listed in the tables below followed with horseradish peroxidase (HRP, 1:10,000, Jackson ImmunoResearch™) conjugated secondary antibodies.
For cytokine stimulation assay, NK-92 cells were pre-treated with L598 (30 μM) or vehicle control for three days. Before IL-2 stimulation, NK-92 cells were washed once with serum depleted cell media (no IL-2) and were starved for six hours in presence of L598 or vehicle control. After starvation, NK-92 cells were stimulated with IL-2 across a gradient concentration ranging from 0 to 90 IU/mL for 15 mins at 37° C. After incubation, cells were directly lysed with 2× concentrated TNE buffer and then boiled in 1× Laemmli Buffer to prepare cell lysates. Two independent experiments were performed.

NK-92 cells = test: Lytic granule protein expression in NK-92 (flow cytometry, Western blot)
Description: as §1
NK-92 cells pre-treated with L598 (30 μM) or vehicle control were stimulated with K-562 tumor target cells [effector: target (E:T) at 1:1] or PMA/lonomycin (1 μg/mL each) or no-stimulation control with K-562 complete media, respectively. Anti-CD107a or LAMP-1 antibody (1:100, PE/Cy7 conjugated, clone H4A3, from BioLegend®) was added to cells at the start of degranulation assay. Golgi stop (containing Monensin, 1 μM) and Golgi plug (containing Brefeldin A, 4 μg/mL) were added to cells one hour after degranulation assay started and were kept until the end of the 6-hour-degranulation assay. Intracellular staining of GrB (1:40, PE conjugated, clone QA18A28, from BioLegend®) and PRF (1:40, FITC conjugated, clone B-D48, from BioLegend®) were performed with the Fixation/Permeabilization Solution Kit (BD® Biosciences) according to the manufacture's protocol. Cells were stained with fixable viability dye (1:2000) for 20 mins on ice and in dark, and blocked with FcBlock (1:20, diluted in 1× Perm/Wash buffer, Human truStain FcX from BioLegend®) for 5 mins at room temperature and in dark before intracellular staining. Cell gating and percentage of population quantification was based on no-stimulation control. For kinetics of degranulation assay, measurements were taken over three hours at 15 mins, 30 mins, 60 mins, 120 mins and 180 mins, with L598 (30 μM, three days) treated group and vehicle control group under the condition of tumor target cell K-562 stimulation (E: T at 1:1) or no stimulation. Intracellular cytolytic granule contents GrA, GrB and PRF were measured as mentioned previously.

KQ791
NK-92 cytolysis towards NK resistant target cells Reh [1]: had no effect | tumor cytolysis by NK-92 against K-562 with inhibitor titration ([2]; dosage increased up to 90 μM, various E:T ratios): gradual increasing of tumor cytolysis | phosphorylation of STAT2 and STAT6 [3]: relatively stable | phosphorylation of STAT1, STAT3, STAT4 and STAT5 ([3]; dosage dependent): increased phosphorylation | protein expression of perforin and granzyme B (NK-92 cells; gradual increasing concentration, three days): upregulated in a dosage dependent manner | granzyme A protein expression (NK-92 cells; with or without inhibitor treatment): relatively stable

TGF-β1: immune regulatory cytokine added to NK-92 culture
effect of added TGF-β1 on NK-92 cytolysis against K-562 ([2]; TGF-β 10 ng/mL, IL-2 media): significantly reduced

B1: IL-4: Th2 cytokine IL-4 added to NK-92 culture (protein, UniProt P05112 25-153, looked up)
Interleukin-4: HKCDITLQEIIKTLNSLTEQKTLCTELTVTDIFAASKNTTEKETFCRAATVLRQFYSHHEKDTRCLGATAQQFHRHKQLIRFLKRLDRNLWGLAGLNSCPVKEANQSTLENFLERLKTIMREKYSKCSS
effect of added IL-4 on NK-92 cytolysis against K-562 ([2]; IL-4 10 ng/mL, IL-2 media, with or without L598): did not reduce nor improve
